According to paper PMC10399917 (Journal of Molecular Cell Biology, 2023):
Values joined by “and” are separate entries in the source; they are usually repeats but may differ in a detail not shown here. Equal entries are not always repeated. Where two headings read alike, the source gives them in different places.

What was measured:
[1] = target: TMPRSS2–SPIKE interaction (His-TMPRSS2 and SPIKE-FLAG) (Severe acute respiratory syndrome coronavirus 2, UniProt P0DTC2); assay: biochemical; format: binding, SARS-CoV-2
[2] = target: TMPRSS2–SPIKE interaction (SmBiT-TMPRSS2 and SPIKE-LgBiT) (Severe acute respiratory syndrome coronavirus 2, UniProt P0DTC2); format: cell-based, SARS-CoV-2
[3] = system: SPIKE protein; conditions: ref Feng et al., 2020; cited from earlier work

Work on N#C/C(=C/c1ccc(O)c(O)c1)C(=O)NCc1ccccc1 [AG-490] yielded an IC50 ([1]; read-out: IC50, TR-FRET signal) of about 19 µM.

For O=C(/C=C/c1ccc(O)c(O)c1)OCCc1ccccc1 [CAPE, caffeic acid phenethyl ester], the “Inhibition of NanoBiT signal” value [2] was “dose-dependent inhibition” and the IC50 ([1]; IC50, TR-FRET signal) was 13.8 µM.

CC(C)c1onc(-c2c(Cl)cccc2Cl)c1COc1ccc(/C=C/c2cccc(C(=O)O)c2)c(Cl)c1 [GW4064] showed an IC50 ([1]; read-out: IC50, TR-FRET signal) of about 7 µM.

Cc1cc(C(C#N)c2ccc(Cl)cc2)c(Cl)cc1NC(=O)c1cc(I)cc(I)c1O (stereo not drawn) [closantel] showed an IC50 ([1]; IC50, TR-FRET signal) of about 17 µM.

For CC1=NN(c2ccc(C)c(C)c2)C(=O)/C1=N\Nc1cccc(-c2cccc(C(=O)O)c2)c1O [eltrombopag olamine], the “Binding to the SPIKE protein” value [3] is given as “bind to the SPIKE protein” and the IC50 ([1]; IC50, TR-FRET signal) is given as ~20 µM and 20.6 µM.

For Cc1cc2c(C(C)C)c(O)c(O)c(C=O)c2c(O)c1-c1c(C)cc2c(C(C)C)c(O)c(O)c(C=O)c2c1O [gossypol acetate], the “Inhibition of NanoBiT signal” value [2] was “dose-dependent inhibition” and the IC50 ([1]; IC50, TR-FRET signal) was 0.69 µM.
